Test results from US8058258B2, “Methods for cancer therapy and stem cell modulation” (Agency for Science, Technology and Research, priority 2006, dated 2011).

Legend:
[1] = tested on: HCT116 cells; experiment: Cell death by PI staining and flow cytometry; format: cell-based; conditions: colorectal cancer HCT116 cells, 5 μM
Description: (§1) FIG. 3A depicts the detection of cell death of a variety of cancer cells upon exposure to 3-deazaneplanocin (DZNep) compared to untreated controls cells (DMSO=dimethyl sulfoxide). Breast cancer MCF-7 and MB-468 cells, colorectal HCT116, RKO and SW480 cells were treated with 5 μm 3-deazaneplanocin for 48 and 72 h, and cell death was detected by means of propodium iodide (PI) staining and flow cytometry analysis. Shown is the average of three independent experiments.
(§2) Cell lines used in these examples were purchased from the American Type Culture Collection (Manassas, Va.). Cells were maintained in DMEM supplemented with 10% fetal bovine serum with glutamine, penicillin, and streptomycin. For drug treatment, cells were seeded the day before the drug treatment. Cells were treated with 5 μM 3-Deazaneplanocin A or 2 μM 5-aza-2′-deoxycytidine (5-AzaC; Sigma) for 72 hours and trichostatin A (TSA; Sigma) at 100 nM for 24 hours. For co-treatment of cells with 5-AzaC and TSA, 5-Aza was added for 48 hours and followed by TSA for 24 hours.
(§3) Cells were trypsinised and washed with PBS and fixed in 70% ethanol and processed for propidium iodide staining and FACS analysis. For the caspase 3 activity assay and mitochondrial membrane potential detection, cells were stained with anti-active caspase 3 and JC-1, respectively, according to the manufacturer's instructions (BD Bioscience).
(§4) It was observed that 3-deazaneplanocin at 5 μM could induce 25% cell death at 48 hours and 45% of cell death at 72 hours, as determined by propodium iodide (PI) staining and flow cytometry analysis (FIG. 3A).

[2] = tested on: RKO cells; experiment: Cell death by PI staining and flow cytometry; format: cell-based; conditions: colorectal cancer RKO cells, 5 μM
Description: as §1, §2, §3, §4

[3] = tested on: SW480 cells; experiment: Cell death by PI staining and flow cytometry; format: cell-based; conditions: colorectal cancer SW480 cells, 5 μM
Description: as §1, §2, §3, §4

[4] = tested on: SUZ12 binding to PRC2 target gene promoters; experiment: ChIP of SUZ12 binding to PRC2 target gene promoters; format: cell-based, human; conditions: MCF-7 cells, 5 μM, 48 hours
Description: ChIP assays were performed as described previously. […] MCF-7 cell were seeded into 6-well plates at 30% confluence and treated with or without 3-deazaneplanocin (5 μM) for 48 hours. Cells were washed once in 1× phosphate-buffered saline (PBS) and then treated with 1% formaldehyde in PBS at 37° C. for […] followed by the addition of glycine to a final concentration of 0.125 M for 5 mM. Cells were then scraped on ice and centrifuged at 1500 rpm for 5 mM at 4° C. After washing with PBS cell pellets were resuspended in 1 mL of cold lysis buffer (10 mM HEPES at pH 7.5, 1 mM EDTA at pH 8.0, 400 mM NaCl, 10% glycerol, 0.5% NP-40, 0.5 mM phenylmethylsulfonyl fluoride, and protease inhibitors [1 mM benzamidine, 3 mg/mL leupeptin, 0.1 mg/mL bacitracin, 1 mg/mL macroglobulin]) followed by centrifugation at 11,500 rpm in a microfuge for 5 min at 4° C. to remove protein not cross-linked to chromatin. The resulting pellets were then resuspended again in 1 mL of cold lysis buffer and sonicated with a Heat Systems-Ultrasonics, Inc. W-220 sonicator at 20% output for a total of 2 mM (pulsed: 30 sec on/30 sec off). The resulting solution was cleared by centrifugation at maximum speed in a microfuge for 10 mM at 4° C. At this point 5% of the solution was taken and stored at −20° C. for the input chromatin sample. […]

Nc1nccc2c1ncn2C1C=C(CO)C(O)C1O (stereo not shown) [3-deazaneplanocin, 5-(4-amino-1H-imidazo[4,5-c]pyridin-1-yl)-3-(hydroxymethyl)-3-cyclopentene-1,2-diol]
cell death [1]: obvious cell death
cell death [2]: obvious cell death
cell death [3]: obvious cell death
SUZ12 binding to PRC2 target gene promoters (ChIP) [4]: markedly reduced
